For orientation: IC50 means the midpoint of a concentration-inhibition curve.

For the experiment, the target named is Microphthalmia-associated transcription factor (Homo sapiens) (UniProt O75030). Put plainly: MITF inhibitors by FRET titration, dose response, biochemical, high throughput (AID 1259375).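 Further: FRET between CFP-tagged and YFP-tagged MITF protein partners.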 As to conditions: FRET biochemical assay, MITF inhibition.

Each structure is given as a SMILES string. Calls of active or inactive are those of the source. How the calls were made is not given here.

Chain of Microphthalmia-associated transcription factor (Homo sapiens) (O75030 whole entry, looked up): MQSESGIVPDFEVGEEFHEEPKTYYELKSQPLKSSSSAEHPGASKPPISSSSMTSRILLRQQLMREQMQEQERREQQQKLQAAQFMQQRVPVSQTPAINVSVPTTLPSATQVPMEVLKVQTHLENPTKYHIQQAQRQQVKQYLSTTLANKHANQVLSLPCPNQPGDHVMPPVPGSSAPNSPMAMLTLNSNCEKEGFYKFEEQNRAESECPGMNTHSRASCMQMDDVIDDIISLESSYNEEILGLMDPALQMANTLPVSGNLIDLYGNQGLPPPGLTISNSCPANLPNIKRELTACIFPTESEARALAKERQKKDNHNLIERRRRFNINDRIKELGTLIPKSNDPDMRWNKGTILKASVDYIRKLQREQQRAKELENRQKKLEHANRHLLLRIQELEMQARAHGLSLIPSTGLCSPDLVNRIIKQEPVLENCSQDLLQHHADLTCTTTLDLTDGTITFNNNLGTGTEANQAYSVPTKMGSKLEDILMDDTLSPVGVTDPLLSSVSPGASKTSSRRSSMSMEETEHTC

Regarding `CN(Cc1ccco1)S(=O)(=O)c1ccc2[nH]cc(C(=O)O)c(=O)c2c1`, the IC50 is > 6.48 µM (inactive). The same measure for `O=C(O)CCCNC(=O)/C=C/c1ccco1`: > 6.48 µM (inactive); for `O=C(OC1(C(F)(F)F)C(=O)Nc2cc3c(cc21)OCO3)c1ccc(Cl)nc1` (configuration not stated): 3.84 µM. The same measure for `O=C(Nc1ccc(-c2cn[nH]c2)c(C(F)(F)F)c1)C1COc2ccccc2O1` (configuration not stated): > 6.48 µM (inactive). Turning to `O=C(O)c1cccc2c1C(=O)N(c1ccccc1)C2`, the IC50 is > 6.31 µM (inactive).

Regarding `N/C(=N\[N+](=O)[O-])N/N=C\c1ccc(-c2ccc(O)c(C(=O)O)c2)o1`, the IC50 is 4.95 µM. For `COC(=O)c1c(NC(=O)c2ccc([N+](=O)[O-])o2)sc(Cc2ccc3c(c2)OCO3)c1C`, the IC50 is > 6.42 µM (inactive). The figure for `CC(=C/C(=O)O)/C=C/c1ccoc1` is > 9.75 µM (inactive).

With `C[C@@H](OCc1ccccc1)[C@@H]1NC(=O)[C@H]2CN(C(=O)NCc3ccccc3)CCN2C1=O`, the IC50 is > 6.48 µM (inactive). With `Cc1cccc(N2CCN(C(=O)/C=C\C(=O)O)CC2)c1C`, the IC50 is > 6.48 µM (inactive). The figure for `Cc1cc(OCCOCCN2CCNCC2)ccc1Cl` is > 6.48 µM (inactive); for `COCCCNC(=O)/C(C#N)=C/c1ccc(-c2ccc(C(=O)O)c(Cl)c2)o1` it is > 6.48 µM (inactive). On to `CC(Oc1ccc(O)cc1)(P(=O)(O)O)P(=O)(O)O`, for which the IC50 was > 6.48 µM (inactive). The same measure for `O=C1N[C@@H](Cc2ccccc2)C(=O)N2CCN(C(=O)NCc3ccccc3)C[C@H]12`: > 6.48 µM (inactive); for `Nc1ccc(C(=O)O)c(O)c1`: 1.96 µM; for `Nc1ccc(O)c(C(=O)O)c1`: 2.52 µM. The same measure for `O=C1c2c(O)cccc2Cc2cccc(O)c21`: > 6.48 µM (inactive); for `CN(CCc1ccccn1)Cc1ccc(F)cc1`: > 6.59 µM (inactive). For `COc1cc(-c2ccnc(N)n2)ccc1NC(=O)[C@H]1COc2ccccc2O1`, the IC50 was > 6.48 µM (inactive). The same measure for `O=C(/C=C/c1ccco1)NCCCCCCNC(=O)/C=C/c1ccco1`: > 6.48 µM (inactive). The figure for `Oc1ccc2c(c1)C1CCCC1(N1CCOCC1)O2` (configuration not stated) is > 6.48 µM (inactive); for `CCOc1ccc(CN2CCN(Cc3cccnc3)CC2)cc1` it is > 5.78 µM (inactive); for `CCOC1=CC(c2ccc3c(c2)OCO3)CC(=O)c2c(C)oc(C)c21` (configuration not stated) it is > 6.48 µM (inactive).

In the case of `CCN1CCN(CCOCCOc2ccc(F)cc2)CC1`, the IC50 was > 6.48 µM (inactive).

On to `N#CC(C#N)=Cc1cccn1-c1ccc(C(=O)O)cc1`, for which the IC50 was > 6.48 µM (inactive). As to `O=C(O)c1cccc(-n2cccc2/C=C\[N+](=O)[O-])c1`, the IC50 was > 6.48 µM (inactive). The same measure for `Cc1cccc(CN2CCN(C3CCC(C)CC3)CC2)c1` (configuration not stated): > 5.54 µM (inactive). `CCOC(=O)c1cc(N2C(=O)C3C4C=CC(C4)C3C2=O)ccc1Cl` (configuration not stated): the IC50 is > 6.48 µM (inactive). Take `CN(N=O)c1cc(O)ccc1O`: the IC50 is > 6.48 µM (inactive). For the compound `O=C(/C=C/c1ccco1)NCC(=O)N/N=C/c1ccc(C(=O)O)cc1`, the IC50 is > 6.48 µM (inactive).

Regarding `Nc1ccc(NCCO)c(N)c1`, the IC50 was > 5.9 µM (inactive).

Regarding `O=C(c1ccncc1)N1CCN(Cc2ccccc2[N+](=O)[O-])CC1`, the IC50 is > 6.13 µM (inactive). The same measure for `COc1ccc(OC)c(CN2CCN(Cc3ccc(F)cc3)CC2)c1`: > 6.11 µM (inactive); for `CCCOc1ccc(N)cc1N`: > 6.22 µM (inactive). The figure for `O=C(OCCCC(=O)N1CCOCC1)c1cc(-c2ccco2)nc2ccccc12` is > 6.58 µM (inactive); for `O=C(O)c1cc2ncc(-c3n[nH]c(-c4cnc5cc(C(=O)O)nn5c4)c3[N+](=O)[O-])cn2n1` it is > 6.48 µM (inactive); for `CN(C)/C=C/C=C/C(=O)c1cccc(C(=O)/C=C/C=C/N(C)C)c1O` it is > 6.48 µM (inactive). The figure for `CCN(CCN(C)C)Cc1ccc(F)cc1` is > 6.48 µM (inactive); for `CN(C)[C@@H]1C(=O)C(C(N)=O)=C(O)[C@@]2(O)C(=O)C3=C(O)c4c(O)cccc4[C@@](C)(O)[C@H]3[C@H](O)[C@@H]12` it is 4.11 µM; for `CCCCn1c(=O)[nH]c(=O)c2c1nc(-c1ccc([N+](=O)[O-])o1)n2C` it is > 7 µM (inactive). Regarding `O=C(COc1ccccc1C(=O)OC1CCCC1=O)Nc1cccc(C(F)(F)F)c1` (configuration not stated), the IC50 was > 6.77 µM (inactive). For the compound `COCCCNC(=O)/C(C#N)=C/c1ccc(-c2ccc(Cl)c(C(=O)O)c2)o1`, the IC50 is > 6.48 µM (inactive).

Turning to `N=C1S/C(=C\c2ccco2)C(=O)N1c1nonc1N`, the IC50 was 3.61 µM. The same measure for `O=C(O)c1ccc(-n2cccc2)cc1Cl`: > 6.48 µM (inactive); for `CCOC(=O)C1CCCN(Cc2cccc(Br)c2)C1` (configuration not stated): > 6.48 µM (inactive). The same measure for `O=c1c(O)c(-c2ccc(O)cc2O)oc2cc(O)cc(O)c12`: > 6.48 µM (inactive); for `Cc1ccc(C)n1C(Cc1c[nH]c2ccccc12)C(=O)O` (configuration not stated): > 6.48 µM (inactive).

On to `O=P(O)(O)C(Cl)(Cl)P(=O)(O)O`, for which the IC50 was > 6.48 µM (inactive).

In the case of `O=C(C1CCC(Nc2nccc(-c3ccc4nc(C5CC5)[nH]c(=O)c4c3)n2)CC1)N1CCCC1` (configuration not stated), the IC50 was > 6.48 µM (inactive). The figure for `Cc1noc(C2CN(C(=O)c3ccc(-n4cccc4)cc3)C2)n1` is > 6.48 µM (inactive); for `O=S(=O)(O)c1ccc(N/N=C2\CCc3ccccc32)cc1` it is > 6.48 µM (inactive); for `COc1ccc(CCNC(=O)CN2CCN(Cc3nc(-c4ccco4)cs3)CC2)cc1OC` it is > 6.48 µM (inactive).

With `NC(=O)c1ccc(-c2cccs2)s1`, the IC50 is > 7.32 µM (inactive).

Regarding `C=CC1=C(C)C2=Cc3c(C=C)c(C)c4[n]3[Sn+2][n]3c(c(C)c(CCC(=O)O)c3=CC3=NC(=C4)C(C)=C3CCC(=O)O)=CC1=N2`, the IC50 is > 6.48 µM (inactive). Take `CN(c1cccc(NS(=O)(=O)c2ccc([N+](=O)[O-])cc2)c1)S(C)(=O)=O`: the IC50 is > 6.48 µM (inactive).

Regarding `O=C(NC1CCCCC1)N1CCN2C(=O)[C@@H]3CSCN3C(=O)[C@H]2C1`, the IC50 was > 6.48 µM (inactive). With `CN1CCN(C(=O)c2ccc(-c3nc(Nc4ccccc4)c4ncn(C5CCCCC5)c4n3)cc2)CC1`, the IC50 was > 7.63 µM (inactive). The same measure for `Cc1sc2nc(C)n3c(=O)n(CC(=O)NCc4ccco4)nc3c2c1C`: > 6.48 µM (inactive).

As to `CN(C)[C@@H]1C(=O)C(C(=O)NCN2CCCC2)=C(O)[C@@]2(O)C(=O)C3=C(O)c4c(O)cccc4[C@@](C)(O)C3CC12` (some centres not stated), the IC50 is > 6.48 µM (inactive). The figure for `COc1ccc2c(c1)CC(c1nc(Nc3ccc4cnccc4c3)c3ccccc3n1)CO2` (configuration not stated) is > 6.48 µM (inactive); for `COc1ccc(C)cc1NC(=O)C(NCC(O)c1ccccc1)c1ccccc1` (configuration not stated) it is > 7.02 µM (inactive); for `COc1nccnc1NS(=O)(=O)c1ccc(NC(=O)c2ccc([N+](=O)[O-])c(C)c2)cc1` it is > 6.48 µM (inactive).

As for `Cc1cccc(CN2CCN(S(=O)(=O)c3ccccc3[N+](=O)[O-])CC2)c1`, the IC50 was > 5.08 µM (inactive). The figure for `COc1ccc2c(c1)CC(C(=O)Nc1ccc(-c3cn[nH]c3)cc1C(=O)N(C)OC)CO2` (configuration not stated) is > 6.48 µM (inactive); for `O=C(O)c1cc(S(=O)(=O)Nc2ccc(-n3cnnn3)cc2)ccc1O` it is > 7.18 µM (inactive). The same measure for `COc1ccc(CN2CCN(Cc3ccccc3OC)CC2)cc1`: > 7.33 µM (inactive); for `CC(C)(C)c1ccc(OCCn2cncn2)c(Cl)c1`: > 6.48 µM (inactive). For `O=C(/C=C/c1ccc(-c2cccc(C(F)(F)F)c2)o1)c1ccco1`, the IC50 is > 6.63 µM (inactive). The figure for `Clc1ccc2c(c1)CC(c1nc(Nc3cncnc3)c3ccccc3n1)CO2` (configuration not stated) is > 6.48 µM (inactive); for `C=CCNCCOCCOc1ccc(OCC)cc1` it is > 6.48 µM (inactive); for `COc1cc(C)c2c(c1C=O)Oc1c(c(C)c(O)c3c1C(O)OC3=O)OC2=O` (configuration not stated) it is 1.66 µM. The same measure for `CC(=O)NS(=O)(=O)c1ccc(NC(=O)c2ccc([N+](=O)[O-])o2)cc1`: > 6.61 µM (inactive).

On to `CN(C)CCOCCOc1ccccc1-c1ccccc1`, for which the IC50 is > 6.48 µM (inactive).

Regarding `CC(C)[C@@H]1NC(=O)[C@H]2CN(C(=O)NCc3ccccc3)CCN2C1=O`, the IC50 is > 6.48 µM (inactive). The same measure for `COCCCNC(=O)/C(C#N)=C/c1ccc(OCC(=O)O)c(OC)c1`: > 6.48 µM (inactive). The same measure for `COc1c(O)cc(O)cc1O`: > 6.48 µM (inactive); for `C=CCc1cc(C)ccc1OCCCCn1ccnc1`: > 6.48 µM (inactive); for `O=C1N[C@@H](CC2CCCCC2)C(=O)N2CCN(C(=O)Nc3ccccc3)C[C@H]12`: > 6.48 µM (inactive).

As to `O=C(c1ccc(=O)oc1)N1CCc2ccccc21`, the IC50 was > 7.53 µM (inactive). With `O=C(NCCO)c1ccc2nc(-c3ccco3)c(-c3ccco3)nc2c1`, the half-maximal inhibitory concentration (IC50) is 1.8 µM.

For the compound `O=C1N[C@H](Cc2ccc(O)cc2)C(=O)N2CCN(C(=O)NC3CCCCC3)C[C@H]12`, the IC50 was > 6.48 µM (inactive).

With `CC1=C/C(=N\N=C2\NC(=O)C(CC(=O)Nc3ccc(C(=O)O)cc3)S2)CC(C)(C)C1` (configuration not stated), the IC50 is > 6.48 µM (inactive). The figure for `CC[C@@H]1NC(=O)[C@H]2CN(C(=O)NCc3ccccc3)CCN2C1=O` is > 6.48 µM (inactive); for `O=C(COC(=O)c1cc(-c2ccco2)nc2ccccc12)NC1CC1` it is > 6.94 µM (inactive). Consider `O=C(O)c1ccc(O)c(C=Nc2ccc(N=Cc3cc(C(=O)O)ccc3O)cc2)c1`, for which the IC50 was > 6.48 µM (inactive). Regarding `O=C1CCCC2=C1C(c1ccc([N+](=O)[O-])o1)C1=C(CCCC1=O)O2`, the IC50 is > 7.09 µM (inactive). The same measure for `O=S(=O)(N=S(=O)(/C=C/c1ccccc1)c1ccccc1)c1ccccc1` (configuration not stated): > 5.36 µM (inactive).
